# Experimental data taken from patent US20240199546A1, “INHIBITORS OF SOLUTE CARRIER FAMILY 6A MEMBER 19 (SLC6A19) AND METHODS OF USE THEREOF” (Maze Therapeutics, Inc., priority 2022, published 2024).
# pIC50: −log10 of the molar value.
# Target: T1, human SLC6A19 and TMEM27 (Homo sapiens, UniProt Q695T7)
# T1 construct: expressed in transfected cells
# T1 sequence (Q695T7 1-634): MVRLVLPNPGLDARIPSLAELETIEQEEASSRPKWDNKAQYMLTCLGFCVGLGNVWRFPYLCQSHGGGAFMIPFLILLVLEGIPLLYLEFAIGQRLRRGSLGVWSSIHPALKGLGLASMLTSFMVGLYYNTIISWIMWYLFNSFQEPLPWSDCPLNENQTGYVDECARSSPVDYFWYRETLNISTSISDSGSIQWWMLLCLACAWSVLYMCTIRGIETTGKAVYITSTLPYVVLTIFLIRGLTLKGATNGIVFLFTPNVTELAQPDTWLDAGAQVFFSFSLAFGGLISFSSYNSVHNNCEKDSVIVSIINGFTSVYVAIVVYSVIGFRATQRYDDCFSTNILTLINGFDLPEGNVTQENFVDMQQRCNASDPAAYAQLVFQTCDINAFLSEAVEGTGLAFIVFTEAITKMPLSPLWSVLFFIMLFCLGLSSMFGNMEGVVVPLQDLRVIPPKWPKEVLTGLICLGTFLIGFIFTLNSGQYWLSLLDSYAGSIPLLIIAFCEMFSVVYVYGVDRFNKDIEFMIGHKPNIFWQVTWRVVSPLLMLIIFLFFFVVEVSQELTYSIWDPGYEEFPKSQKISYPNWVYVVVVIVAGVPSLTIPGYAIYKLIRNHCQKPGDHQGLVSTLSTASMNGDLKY
# T1 sequence (Q9HBJ8 15-222 partner): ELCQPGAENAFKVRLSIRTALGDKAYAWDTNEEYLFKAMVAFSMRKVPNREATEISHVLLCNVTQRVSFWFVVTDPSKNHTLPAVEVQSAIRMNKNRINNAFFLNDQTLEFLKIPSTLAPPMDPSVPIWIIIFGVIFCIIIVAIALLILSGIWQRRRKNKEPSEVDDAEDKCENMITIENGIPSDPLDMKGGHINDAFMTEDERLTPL
# Test: Radiolabelled (3H) leucine uptake in CHO cells with doxycycline-inducible expression of human SLC6A19 and TMEM27 (Example B-1)
# Format: cell-based
# Conditions: CHO cells with doxycycline-inducible expression of human SLC6A19 and TMEM27, read-out: SLC6A19_Radioligand Uptake Assay IC50
# Outline: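 CHO cells were induced with doxycycline for 18 h at 37 °C, washed in HBSS, then exposed to compounds for 1 h: 8-point, 3-fold dilutions in duplicate, 0.5% DMSO final. Uptake measured by scintillation counting after 2 h shaking. Activity normalized with positive control as 0% and DMSO as 100%.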
row,pIC50,SMILES
1,5.98,"CC(NC(=O)C1(C)CC1)c1cc2cc(Cl)c(OCc3cscn3)cc2[nH]1 (racemic) [Compound 347, (S)-N-(1-(5-chloro-6-(thiazol-4-ylmethoxy)-1H-indol-2-yl)ethyl)-1-methylcyclopropane-1-carboxamide and (R)-N-(1-(5-chloro-6-(thiazol-4-ylmethoxy)-1H-indol-2-yl)ethyl)-1-methylcyclopropane-1-carboxamide]"
2,6.58,"CC1(C(=O)NCc2cc3cc(OC(F)(F)F)c(OCc4cscn4)cc3[nH]2)CC1 [Compound 434, 1-methyl-N-((6-(thiazol-4-ylmethoxy)-5-(trifluoromethoxy)-1H-indol-2-yl)methyl)cyclopropane-1-carboxamide]"
3,6.12,"C[C@@H](O)C(=O)NCc1cc2cc(Cl)c(OCc3cscn3)cc2[nH]1 [Compound 257, (R)-N-((5-chloro-6-(thiazol-4-ylmethoxy)-1H-indol-2-yl)methyl)-2-hydroxypropanamide]"
4,6.80,"O=C(NCc1cc2cc(F)c(OCc3ccon3)cc2[nH]1)N1CCCC1 [Compound 116, N-((5-fluoro-6-(isoxazol-3-ylmethoxy)-1H-indol-2-yl)methyl)pyrrolidine-1-carboxamide]"
5,5.63,"CC1(C(=O)NCc2cc3cc(Cl)c(OCc4cscn4)cc3[nH]2)CCO1 (stereo not drawn) [Compound 260, N-((5-chloro-6-(thiazol-4-ylmethoxy)-1H-indol-2-yl)methyl)-2-methyloxetane-2-carboxamide]"
6,5.80,"C[C@H]1CCCN1C(=O)NCc1cc2cc(F)c(OCc3ccon3)cc2[nH]1 [Compound 384, (S)-N-((5-fluoro-6-(isoxazol-3-ylmethoxy)-1H-indol-2-yl)methyl)-2-methylpyrrolidine-1-carboxamide]"
7,6.39,"O=C(NCc1cc2cc(C(F)(F)F)c(OCc3ccon3)cc2[nH]1)N1CCCC1 [Compound 476, N-((6-(isoxazol-3-ylmethoxy)-5-(trifluoromethyl)-1H-indol-2-yl)methyl)pyrrolidine-1-carboxamide]"
8,6.75,"Cc1cc(COc2cc3[nH]c(CNC(=O)CC(F)F)cc3cc2F)on1 [Compound 518, 3,3-difluoro-N-((5-fluoro-6-((3-methylisoxazol-5-yl)methoxy)-1H-indol-2-yl)methyl)propanamide]"
9,5.57,"Cc1cc(COc2cc3[nH]c(CNC(=O)CC4COC4)cc3cc2Cl)on1 [Compound 258, N-((5-chloro-6-((3-methylisoxazol-5-yl)methoxy)-1H-indol-2-yl)methyl)-2-(oxetan-3-yl)acetamide]"
10,6.23,"Cc1cc(COc2cc3[nH]c(CNC(=O)CN(C)C)cc3cc2Cl)on1 [Compound 579, N-((5-chloro-6-((3-methylisoxazol-5-yl)methoxy)-1H-indol-2-yl)methyl)-2-(dimethylamino)acetamide]"
11,6.92,"COCC(=O)NCc1cc2cc(F)c(OCc3cscn3)cc2[nH]1 [Compound 265, N-((5-fluoro-6-(thiazol-4-ylmethoxy)-1H-indol-2-yl)methyl)-2-methoxyacetamide]"
12,5.99,"O=C(NCc1cc2cc(Cl)c(OCc3cscn3)cc2[nH]1)C1CC12CCC2 (stereo not drawn) [Compound 558, N-((5-chloro-6-(thiazol-4-ylmethoxy)-1H-indol-2-yl)methyl)spiro[2.3]hexane-1-carboxamide]"
13,5.57,"C[C@@H](O)C(=O)NCc1cc2cc(F)c(OCc3cscn3)cc2[nH]1 [Compound 282, (R)-N-((5-fluoro-6-(thiazol-4-ylmethoxy)-1H-indol-2-yl)methyl)-2-hydroxypropanamide]"
14,6.42,"O=C(NCc1cc2cc(OC(F)(F)F)c(OCc3ccon3)cc2[nH]1)N1CCC1 [Compound 416, N-((6-(isoxazol-3-ylmethoxy)-5-(trifluoromethoxy)-1H-indol-2-yl)methyl)azetidine-1-carboxamide]"
15,6.92,"CC1(C(=O)NCc2cc3cc(F)c(CCc4cscn4)cc3[nH]2)CC1 [Compound 594, N-((5-fluoro-6-(2-(thiazol-4-yl)ethyl)-1H-indol-2-yl)methyl)-1-methylcyclopropane-1-carboxamide]"
16,5.82,"CC1(C(=O)NCc2cc3cc(OC(F)(F)F)c(CCc4cscn4)cc3[nH]2)CC1 [Compound 509, 1-methyl-N-((6-(2-(thiazol-4-yl)ethyl)-5-(trifluoromethoxy)-1H-indol-2-yl)methyl)cyclopropane-1-carboxamide]"
17,5.85,"Cc1cc(COc2cc3[nH]c(CNC(=O)CC4(O)CC4)cc3cc2Cl)on1 [Compound 237, N-((5-chloro-6-((3-methylisoxazol-5-yl)methoxy)-1H-indol-2-yl)methyl)-2-(1-hydroxycyclopropyl)acetamide]"
18,6.49,"C[C@H](O)C(=O)NCc1cc2cc(Cl)c(OCc3cscn3)cc2[nH]1 [Compound 285, (S)-N-((5-chloro-6-(thiazol-4-ylmethoxy)-1H-indol-2-yl)methyl)-2-hydroxypropanamide]"
19,6.07,"Cc1cc(COc2cc3[nH]c(CNC(=O)N4CCC(C(F)F)C4)cc3cc2Cl)on1 (stereo not drawn) [Compound 377, N-((5-chloro-6-((3-methylisoxazol-5-yl)methoxy)-1H-indol-2-yl)methyl)-3-(difluoromethyl)pyrrolidine-1-carboxamide]"
20,6.77,"[2H]C([2H])([2H])C1(C(=O)NCc2cc3cc(Cl)c(OCc4cscn4)cc3[nH]2)CC1 [Compound 483, N-((5-chloro-6-(thiazol-4-ylmethoxy)-1H-indol-2-yl)methyl)-1-(methyl-d3)cyclopropane-1-carboxamide]"
21,6.25,"CC1(C(=O)NCc2cc3cc(Cl)c(OCc4ncsc4Cl)cc3[nH]2)CC1 [Compound 400, N-((5-chloro-6-((5-chlorothiazol-4-yl)methoxy)-1H-indol-2-yl)methyl)-1-methylcyclopropane-1-carboxamide]"
22,6.47,"CC1(C(=O)NCc2cc3cc(Cl)c(CNc4ccccn4)cc3[nH]2)CC1 [Compound 609, N-((5-chloro-6-((pyridin-2-ylamino)methyl)-1H-indol-2-yl)methyl)-1-methylcyclopropane-1-carboxamide]"
23,6.60,"Cc1cc(COc2cc3[nH]c(CNC(=O)N4CC(F)C4)cc3cc2Cl)on1 [Compound 372, N-((5-chloro-6-((3-methylisoxazol-5-yl)methoxy)-1H-indol-2-yl)methyl)-3-fluoroazetidine-1-carboxamide]"
24,5.56,"Cc1cc(COc2cc3[nH]c(CNC(=O)[C@H]4CCN4)cc3cc2Cl)on1 [Compound 616, (R)-N-((5-chloro-6-((3-methylisoxazol-5-yl)methoxy)-1H-indol-2-yl)methyl)azetidine-2-carboxamide]"
25,7.08,"[2H]C([2H])([2H])C(=O)NCc1cc2cc(Cl)c(OCc3cc(C)no3)cc2[nH]1 [Compound 562, N-((5-chloro-6-((3-methylisoxazol-5-yl)methoxy)-1H-indol-2-yl)methyl)acetamide-2,2,2-d3]"
26,6.97,"Cc1cc(COc2cc3[nH]c(CNC(=O)[C@@H]4C[C@H]4F)cc3cc2Cl)on1 [Compound 537, (1S,2R)-N-((5-chloro-6-((3-methylisoxazol-5-yl)methoxy)-1H-indol-2-yl)methyl)-2-fluorocyclopropane-1-carboxamide]"
27,5.12,"CC(=O)NCc1cc2cc(Cl)c(OCC3CC3(F)F)cc2[nH]1 (stereo not drawn) [Compound 458, N-((5-chloro-6-((2,2-difluorocyclopropyl)methoxy)-1H-indol-2-yl)methyl)acetamide]"
